# Experimental data taken from PubChem BioAssay (NCI).
#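 Grown in 96-well plates, cells were treated for 48 hours with each compound at five concentrations. Insufficient inhibition: endpoint recorded as highest concentration tested. Definition used: TGI = concentration required for complete inhibition of growth.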
# Assays:
# Assay in all cases: DTP human tumour cell line panel, 48 h
# HL-60(TB) leukemia = tested on: HL-60(TB) leukemia
# MDA-MB-231 breast = tested on: MDA-MB-231 breast
# NCI/ADR-RES ovarian = tested on: NCI/ADR-RES ovarian
# T-47D breast = tested on: T-47D breast
# RPMI-8226 leukemia = tested on: RPMI-8226 leukemia
# NCI-H522 lung = tested on: NCI-H522 lung
# HOP-92 NSCLC = tested on: HOP-92 NSCLC
# SK-MEL-5 melanoma = tested on: SK-MEL-5 melanoma
# UO-31 renal = tested on: UO-31 renal
# LOX IMVI melanoma = tested on: LOX IMVI melanoma
# MALME-3M melanoma = tested on: MALME-3M melanoma
# HCT-116 colon = tested on: HCT-116 colon
# BT-549 breast = tested on: BT-549 breast
# UACC-62 melanoma = tested on: UACC-62 melanoma
# HOP-62 NSCLC = tested on: HOP-62 NSCLC
# EKVX NSCLC = tested on: EKVX NSCLC
# M14 melanoma = tested on: M14 melanoma
# SW-620 colon = tested on: SW-620 colon
# SF-539 CNS = tested on: SF-539 CNS
# SNB-19 CNS = tested on: SNB-19 CNS
# OVCAR-5 ovarian = tested on: OVCAR-5 ovarian
# IGROV1 ovarian = tested on: IGROV1 ovarian
# CCRF-CEM leukemia = tested on: CCRF-CEM leukemia
# U251 CNS = tested on: U251 CNS
# HS 578T breast = tested on: HS 578T breast
# OVCAR-8 ovarian = tested on: OVCAR-8 ovarian
# SF-295 CNS = tested on: SF-295 CNS
# HCC-2998 colon = tested on: HCC-2998 colon
# CAKI-1 renal = tested on: CAKI-1 renal
# OVCAR-3 ovarian = tested on: OVCAR-3 ovarian
# SNB-75 CNS = tested on: SNB-75 CNS
# OVCAR-4 ovarian = tested on: OVCAR-4 ovarian
# HCT-15 colon = tested on: HCT-15 colon
# MDA-MB-435 = tested on: MDA-MB-435
# MDA-N = tested on: MDA-N
# NCI-H23 lung = tested on: NCI-H23 lung
# SN12C renal = tested on: SN12C renal
# ACHN renal = tested on: ACHN renal
# K-562 leukemia = tested on: K-562 leukemia
# NCI-H226 lung = tested on: NCI-H226 lung
# HT29 colon = tested on: HT29 colon
# RXF 393 renal = tested on: RXF 393 renal
# UACC-257 melanoma = tested on: UACC-257 melanoma
# SK-MEL-28 melanoma = tested on: SK-MEL-28 melanoma
# PC-3 prostate = tested on: PC-3 prostate
# TK-10 renal = tested on: TK-10 renal
# SF-268 CNS = tested on: SF-268 CNS
# A549 NSCLC = tested on: A549 NSCLC
# MCF7 breast = tested on: MCF7 breast
# NCI-H460 lung = tested on: NCI-H460 lung
# SK-OV-3 ovarian = tested on: SK-OV-3 ovarian
# 786-0 renal = tested on: 786-0 renal
# A498 renal = tested on: A498 renal
# KM12 colon = tested on: KM12 colon
# SK-MEL-2 melanoma = tested on: SK-MEL-2 melanoma
# MOLT-4 leukemia = tested on: MOLT-4 leukemia
# DU-145 prostate = tested on: DU-145 prostate
# SR leukemia = tested on: SR leukemia
# COLO 205 colon = tested on: COLO 205 colon
structure (smiles),measurement,setting,value
O=C(Nc1c(Cl)cc([N+](=O)[O-])cc1Cl)C(=O)C1C(=O)NC(=S)NC1=O,TGI,HL-60(TB) leukemia,> 100 µM
same,TGI,MDA-MB-231 breast,> 100 µM
same,TGI,NCI/ADR-RES ovarian,> 100 µM
same,TGI,T-47D breast,> 100 µM
same,TGI,RPMI-8226 leukemia,> 100 µM
same,TGI,NCI-H522 lung,> 100 µM
same,TGI,HOP-92 NSCLC,> 100 µM
same,TGI,SK-MEL-5 melanoma,> 100 µM
same,TGI,UO-31 renal,> 100 µM
same,TGI,LOX IMVI melanoma,> 100 µM
same,TGI,MALME-3M melanoma,> 100 µM
same,TGI,HCT-116 colon,> 100 µM
same,TGI,BT-549 breast,> 100 µM
same,TGI,UACC-62 melanoma,> 100 µM
same,TGI,HOP-62 NSCLC,> 100 µM
same,TGI,EKVX NSCLC,> 100 µM
same,TGI,M14 melanoma,> 100 µM
same,TGI,SW-620 colon,> 100 µM
same,TGI,SF-539 CNS,> 100 µM
same,TGI,SNB-19 CNS,> 100 µM
same,TGI,OVCAR-5 ovarian,> 100 µM
same,TGI,IGROV1 ovarian,> 100 µM
same,TGI,CCRF-CEM leukemia,> 100 µM
same,TGI,U251 CNS,> 100 µM
same,TGI,HS 578T breast,> 100 µM
same,TGI,OVCAR-8 ovarian,> 100 µM
same,TGI,SF-295 CNS,> 100 µM
same,TGI,HCC-2998 colon,> 100 µM
same,TGI,CAKI-1 renal,> 100 µM
same,TGI,OVCAR-3 ovarian,> 100 µM
same,TGI,SNB-75 CNS,> 100 µM
same,TGI,OVCAR-4 ovarian,> 100 µM
same,TGI,HCT-15 colon,> 100 µM
same,TGI,MDA-MB-435,> 100 µM
same,TGI,MDA-N,> 100 µM
same,TGI,NCI-H23 lung,> 100 µM
same,TGI,SN12C renal,> 100 µM
same,TGI,ACHN renal,> 100 µM
same,TGI,K-562 leukemia,> 100 µM
same,TGI,NCI-H226 lung,> 100 µM
same,TGI,HT29 colon,> 100 µM
same,TGI,RXF 393 renal,> 100 µM
same,TGI,UACC-257 melanoma,> 100 µM
same,TGI,SK-MEL-28 melanoma,> 100 µM
same,TGI,PC-3 prostate,> 100 µM
same,TGI,TK-10 renal,> 100 µM
same,TGI,SF-268 CNS,> 100 µM
same,TGI,A549 NSCLC,> 100 µM
same,TGI,MCF7 breast,> 100 µM
same,TGI,NCI-H460 lung,> 100 µM
same,TGI,SK-OV-3 ovarian,> 100 µM
same,TGI,786-0 renal,> 100 µM
same,TGI,A498 renal,> 100 µM
same,TGI,KM12 colon,> 100 µM
same,TGI,SK-MEL-2 melanoma,> 100 µM
O=C(CN1CCCCC1)c1ccc2c(c1)Sc1ccccc1O2,TGI,HL-60(TB) leukemia,58.1 µM
same,TGI,MDA-MB-231 breast,37.2 µM
same,TGI,NCI/ADR-RES ovarian,35 µM
same,TGI,T-47D breast,47.9 µM
same,TGI,RPMI-8226 leukemia,> 100 µM
same,TGI,MOLT-4 leukemia,> 100 µM
same,TGI,HOP-92 NSCLC,28 µM
same,TGI,UO-31 renal,22.9 µM
same,TGI,LOX IMVI melanoma,40.3 µM
same,TGI,MALME-3M melanoma,33.4 µM
same,TGI,DU-145 prostate,49.3 µM
same,TGI,HCT-116 colon,35 µM
same,TGI,UACC-62 melanoma,25.7 µM
same,TGI,HOP-62 NSCLC,32.5 µM
same,TGI,EKVX NSCLC,36.1 µM
same,TGI,M14 melanoma,28.5 µM
same,TGI,SR leukemia,75.1 µM
same,TGI,SW-620 colon,39.1 µM
same,TGI,SF-539 CNS,30.6 µM
same,TGI,SNB-19 CNS,28.9 µM
same,TGI,OVCAR-5 ovarian,30 µM
same,TGI,IGROV1 ovarian,23.5 µM
same,TGI,CCRF-CEM leukemia,34.4 µM
same,TGI,U251 CNS,39.6 µM
same,TGI,HS 578T breast,21.6 µM
same,TGI,OVCAR-8 ovarian,33.2 µM
same,TGI,SF-295 CNS,30.9 µM
same,TGI,HCC-2998 colon,37 µM
same,TGI,CAKI-1 renal,37.2 µM
same,TGI,OVCAR-3 ovarian,29.6 µM
same,TGI,COLO 205 colon,61.1 µM
same,TGI,SNB-75 CNS,24.2 µM
same,TGI,OVCAR-4 ovarian,27.5 µM
same,TGI,HCT-15 colon,24.6 µM
same,TGI,MDA-MB-435,33.9 µM
same,TGI,MDA-N,34.5 µM
same,TGI,NCI-H23 lung,27.9 µM
same,TGI,SN12C renal,42.7 µM
same,TGI,ACHN renal,27.7 µM
same,TGI,K-562 leukemia,> 100 µM
same,TGI,NCI-H226 lung,29 µM
same,TGI,HT29 colon,23.7 µM
same,TGI,RXF 393 renal,21 µM
same,TGI,UACC-257 melanoma,39.6 µM
same,TGI,SK-MEL-28 melanoma,37.8 µM
same,TGI,PC-3 prostate,24.4 µM
same,TGI,TK-10 renal,44.6 µM
same,TGI,SF-268 CNS,33.9 µM
same,TGI,A549 NSCLC,29.1 µM
same,TGI,MCF7 breast,30.9 µM
same,TGI,NCI-H460 lung,29.5 µM
same,TGI,SK-OV-3 ovarian,29.6 µM
same,TGI,786-0 renal,33.2 µM
same,TGI,A498 renal,39.3 µM
same,TGI,KM12 colon,30.1 µM
same,TGI,SK-MEL-2 melanoma,32.8 µM
